Reference: patent publication US8637550B2, “Heteroaryl diamide compounds useful as MMP-13 inhibitors” (Boehringer Ingelheim International GmbH, priority 2008, dated 2014)
Several values for one entry are separate records, joined by “and”; a condition that tells them apart may be missing. Identical values can stand only once.

The compounds below were run against MMP-13 (Homo sapiens, UniProt P45452) (assay: EnzoLyte 520 Generic MMP Assay Kit, 5-FAM/QXL520 FRET peptide substrate).
Type: biochemical
Source text: The EnzoLyte™ 520 Generic MMP Assay Kit (AnaSpec Inc.) can detect the activity of several MMPs including MMP-1, 2, 3, 7, 8, 9, 13, and 14. This kit uses a 5-FAM/QXL™520 fluorescence resonance energy transfer (FRET) peptide as an MMP substrate.

Compound	IC50
CNC(=O)[C@@H](NC(=O)c1ccc(-c2ccc(O[C@H](C)c3ccncc3)cn2)o1)C1CCCCC1 [N-[(1S)-1-cyclohexyl-2-(methylamino)-2-oxoethyl]-5-{5-[(1R)-1-(pyridin-4-yl)ethoxy]pyridin-2-yl}furan-2-carboxamide]	3 nM
CNC(=O)[C@@H](NC(=O)c1ccc(-c2ccc(O[C@H](C)c3ccccc3)cn2)o1)C1CCCCC1 [N-[(1S)-1-cyclohexyl-2-(methylamino)-2-oxoethyl]-5-{5-[(1R)-1-phenylethoxy]pyridin-2-yl}furan-2-carboxamide]	41 nM and 73 nM
CNC(=O)[C@@H](NC(=O)c1ccc(-c2ccc(O[C@@H](C)c3ccccc3)cn2)o1)C1CCCCC1 [N-[(1S)-1-cyclohexyl-2-(methylamino)-2-oxoethyl]-5-{5-[(1S)-1-phenylethoxy]pyridin-2-yl}furan-2-carboxamide]	295 nM
CNC(=O)[C@@H](NC(=O)c1ccc(-c2ccc(OCc3cn(C)cn3)cn2)o1)C1CCNCC1 [N-[(1S)-2-(methylamino)-2-oxo-1-(piperidin-4-yl)ethyl]-5-{5-[(1-methyl-1H-imidazol-4-yl)methoxy]pyridin-2-yl}furan-2-carboxamide]	163 nM
NC(=O)COCCNC(=O)[C@@H](NC(=O)c1ccc(-c2ccc(Cl)cc2)o1)C1CCCCC1 [N-[(1S)-2-{[2-(2-amino-2-oxoethoxy)ethyl]amino}-1-cyclohexyl-2-oxoethyl]-5-(4-chlorophenyl)furan-2-carboxamide]	325 nM
COCC(C)NC(=O)[C@@H](NC(=O)c1ccc(-c2ccc(NC(=O)c3cc4ccccc4o3)cc2)o1)C1CCCCC1 (stereo partly drawn) [N-{4-[5-({(1S)-1-cyclohexyl-2-[(1-methoxypropan-2-yl)amino]-2-oxoethyl}carbamoyl)furan-2-yl]phenyl}-1-benzofuran-2-carboxamide]	355 nM

Second part, the compound after the results:

IC50	Compound
2 nM	CNC(=O)[C@@H](NC(=O)c1ccc(-c2ccc(OCc3cc(C)nc(C)c3)cn2)o1)C1CCCCC1 [N-[(1S)-1-cyclohexyl-2-(methylamino)-2-oxoethyl]-5-{5-[(2,6-dimethylpyridin-4-yl)methoxy]pyridin-2-yl}furan-2-carboxamide]
1 nM	CNC(=O)[C@@H](NC(=O)c1ccc(-c2ccc(OCc3ccnc(C)c3)cn2)o1)C1CCCCC1 [N-[(1S)-1-cyclohexyl-2-(methylamino)-2-oxoethyl]-5-{5-[(2-methylpyridin-4-yl)methoxy]pyridin-2-yl}furan-2-carboxamide]
115 nM	CNC(=O)[C@@H](NC(=O)c1ccc(-c2ccc(OCc3cc(C)cc(C)c3)cn2)o1)C1CCCCC1 [N-[(1S)-1-cyclohexyl-2-(methylamino)-2-oxoethyl]-5-{5-[(3,5-dimethylbenzyl)oxy]pyridin-2-yl}furan-2-carboxamide]
36 nM	CNC(=O)[C@@H](NC(=O)c1ccc(-c2ccc(OCc3cccc(C)c3)cn2)o1)C1CCCCC1 [N-[(1S)-1-cyclohexyl-2-(methylamino)-2-oxoethyl]-5-{5-[(3-methylbenzyl)oxy]pyridin-2-yl}furan-2-carboxamide]
3 nM	CNC(=O)[C@@H](NC(=O)c1ccc(-c2ccc(OCc3ccncc3C)cn2)o1)C1CCCCC1 [N-[(1S)-1-cyclohexyl-2-(methylamino)-2-oxoethyl]-5-{5-[(3-methylpyridin-4-yl)methoxy]pyridin-2-yl}furan-2-carboxamide]
8 nM	CNC(=O)[C@@H](NC(=O)c1ccc(-c2ccc(OCc3cc(C)ccn3)cn2)o1)C1CCCCC1 [N-[(1S)-1-cyclohexyl-2-(methylamino)-2-oxoethyl]-5-{5-[(4-methylpyridin-2-yl)methoxy]pyridin-2-yl}furan-2-carboxamide]
